Molecules are shown by their SMILES.

The target of this assay is Maltase-glucoamylase (Homo sapiens, UniProt O43451). Put plainly: Inhibition of alpha-glucosidase.
Chain of Maltase-glucoamylase (O43451 whole entry): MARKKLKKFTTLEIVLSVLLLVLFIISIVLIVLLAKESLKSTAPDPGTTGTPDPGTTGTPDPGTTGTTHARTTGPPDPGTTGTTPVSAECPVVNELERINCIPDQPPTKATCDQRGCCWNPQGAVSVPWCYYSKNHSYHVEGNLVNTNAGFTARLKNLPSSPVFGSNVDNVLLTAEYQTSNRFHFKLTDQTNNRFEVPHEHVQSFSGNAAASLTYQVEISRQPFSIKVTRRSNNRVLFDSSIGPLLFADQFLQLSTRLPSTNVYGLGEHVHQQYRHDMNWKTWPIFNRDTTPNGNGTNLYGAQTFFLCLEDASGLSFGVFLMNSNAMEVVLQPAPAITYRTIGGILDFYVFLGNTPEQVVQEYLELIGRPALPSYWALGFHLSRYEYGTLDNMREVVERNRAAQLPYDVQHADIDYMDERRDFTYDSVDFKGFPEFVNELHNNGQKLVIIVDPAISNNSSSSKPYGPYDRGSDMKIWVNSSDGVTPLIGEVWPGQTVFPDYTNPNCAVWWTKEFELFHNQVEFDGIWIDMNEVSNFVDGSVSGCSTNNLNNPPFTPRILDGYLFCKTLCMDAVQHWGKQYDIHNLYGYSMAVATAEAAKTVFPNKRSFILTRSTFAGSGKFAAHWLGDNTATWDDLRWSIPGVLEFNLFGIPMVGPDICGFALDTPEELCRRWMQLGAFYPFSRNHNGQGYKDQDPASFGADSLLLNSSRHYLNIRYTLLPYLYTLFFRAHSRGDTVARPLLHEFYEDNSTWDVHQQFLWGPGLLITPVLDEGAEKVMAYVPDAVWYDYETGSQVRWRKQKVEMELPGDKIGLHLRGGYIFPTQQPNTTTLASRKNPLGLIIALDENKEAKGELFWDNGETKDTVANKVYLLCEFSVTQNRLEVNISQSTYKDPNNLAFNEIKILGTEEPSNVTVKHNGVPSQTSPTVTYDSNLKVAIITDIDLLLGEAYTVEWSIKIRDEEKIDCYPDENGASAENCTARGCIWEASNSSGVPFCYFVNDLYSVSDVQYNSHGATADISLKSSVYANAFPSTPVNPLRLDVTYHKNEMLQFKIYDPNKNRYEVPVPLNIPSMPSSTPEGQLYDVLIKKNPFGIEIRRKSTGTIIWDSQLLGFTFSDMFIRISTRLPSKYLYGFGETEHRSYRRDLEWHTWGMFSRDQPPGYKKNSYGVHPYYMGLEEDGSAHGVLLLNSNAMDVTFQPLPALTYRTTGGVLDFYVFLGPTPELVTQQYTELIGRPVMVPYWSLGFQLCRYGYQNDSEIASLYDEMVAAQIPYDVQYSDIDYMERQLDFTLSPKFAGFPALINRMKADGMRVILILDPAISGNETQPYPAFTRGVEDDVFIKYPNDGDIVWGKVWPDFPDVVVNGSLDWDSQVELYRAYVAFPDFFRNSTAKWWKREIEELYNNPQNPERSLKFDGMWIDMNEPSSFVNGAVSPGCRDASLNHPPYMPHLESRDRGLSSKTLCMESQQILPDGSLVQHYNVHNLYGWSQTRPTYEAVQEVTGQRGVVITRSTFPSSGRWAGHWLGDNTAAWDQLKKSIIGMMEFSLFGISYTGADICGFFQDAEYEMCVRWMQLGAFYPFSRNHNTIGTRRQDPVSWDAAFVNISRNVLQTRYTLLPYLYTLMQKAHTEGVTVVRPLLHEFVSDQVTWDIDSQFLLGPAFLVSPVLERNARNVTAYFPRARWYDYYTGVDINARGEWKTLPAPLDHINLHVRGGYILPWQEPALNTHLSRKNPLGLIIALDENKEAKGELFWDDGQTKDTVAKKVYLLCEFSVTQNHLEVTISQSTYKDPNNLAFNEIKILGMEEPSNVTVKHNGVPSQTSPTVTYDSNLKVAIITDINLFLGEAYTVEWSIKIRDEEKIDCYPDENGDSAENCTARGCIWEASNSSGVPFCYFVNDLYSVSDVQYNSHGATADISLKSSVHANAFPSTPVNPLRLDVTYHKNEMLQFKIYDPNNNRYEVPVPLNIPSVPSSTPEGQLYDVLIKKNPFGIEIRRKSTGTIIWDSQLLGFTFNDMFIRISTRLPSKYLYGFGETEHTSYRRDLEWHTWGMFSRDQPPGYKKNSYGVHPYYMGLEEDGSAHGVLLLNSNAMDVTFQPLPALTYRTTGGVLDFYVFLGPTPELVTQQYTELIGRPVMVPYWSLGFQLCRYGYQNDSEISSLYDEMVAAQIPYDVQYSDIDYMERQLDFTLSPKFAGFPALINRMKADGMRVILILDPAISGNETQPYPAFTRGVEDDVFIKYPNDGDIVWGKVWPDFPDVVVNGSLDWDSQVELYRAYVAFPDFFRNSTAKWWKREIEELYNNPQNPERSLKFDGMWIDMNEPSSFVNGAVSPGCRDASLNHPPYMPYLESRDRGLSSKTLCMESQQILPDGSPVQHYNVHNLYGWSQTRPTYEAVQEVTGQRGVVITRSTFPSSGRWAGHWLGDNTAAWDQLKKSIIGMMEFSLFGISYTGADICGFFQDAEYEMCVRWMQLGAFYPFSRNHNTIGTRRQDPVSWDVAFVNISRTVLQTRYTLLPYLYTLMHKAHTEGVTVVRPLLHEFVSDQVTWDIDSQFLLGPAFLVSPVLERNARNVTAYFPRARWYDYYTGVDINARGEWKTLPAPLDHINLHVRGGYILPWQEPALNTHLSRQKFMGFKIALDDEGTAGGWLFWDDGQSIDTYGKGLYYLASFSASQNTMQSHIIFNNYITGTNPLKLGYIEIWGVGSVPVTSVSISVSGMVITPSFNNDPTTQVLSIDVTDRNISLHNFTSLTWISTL
The compound `C=C1CC[C@@H]2[C@](C)(COC(=O)c3cccnc3)[C@H](OC(=O)c3cccnc3)CC[C@@]2(C)[C@@H]1/C=C/C1=CC(=C\C(C)=C\CCC/C=C/C)/OC1=O` [14-deoxy-11,12-didehydro-3,19-dinicotinate-15-(2,8-dimethanyl-2,7-octanedieneylidene)-andrographolide] yielded an IC50 of 28 µM.
Compound `C=C1CC[C@@H]2[C@](C)(COC(=O)c3cccnc3)[C@H](OC(=O)c3cccnc3)CC[C@@]2(C)[C@@H]1/C=C/C1=CC(=C\c2ccc(OC)cc2)/OC1=O` [14-deoxy-11,12-didehydro-3,19-dinicotinate-15-p-methoxylbenzylidene andrographolide] returned an IC50 of 11 µM.
In the case of `C=C1CC[C@@H]2[C@](C)(COC(=O)c3cccnc3)[C@H](OC(=O)c3cccnc3)CC[C@@]2(C)[C@@H]1/C=C/C1=CC(=C/c2ccco2)/OC1=O` [14-deoxy-11,12-didehydro-3,19-dinicotinate-15-(2-furanmethanylidene)-andrographolide], the IC50 came out at 36 µM.
In the case of `C=C1CC[C@@H]2[C@](C)(COC(=O)c3cccnc3)[C@H](OC(=O)c3cccnc3)CC[C@@]2(C)[C@@H]1/C=C/C1=CC(=C\c2ccc(Cl)cc2)/OC1=O` [15-(p-chlorinebenzylidene)-14-deoxy-11,12-didehydro-3,19-dinicotinateandrographolide] it was 6 µM; in that of `C=C1CC[C@@H]2[C@](C)(COC(=O)c3cccnc3)[C@H](OC(=O)c3cccnc3)CC[C@@]2(C)[C@@H]1/C=C/C1=CC(=C\c2ccccc2)/OC1=O` [15-benzylidene14-deoxy-11,12-didehydro-3,19-dinicotinateandrographolide], 16 µM.
On to `C=C1CC[C@@H]2[C@](C)(COC(=O)c3cccnc3)[C@H](OC(=O)c3cccnc3)CC[C@@]2(C)[C@@H]1/C=C/C1=CC(=C\c2ccc(N(C)C)cc2)/OC1=O` [14-deoxy-11,12-didehydro-3,19-dinicotinate-15-(p(-dimethylamino)benzylidene)-andrographolide], for which 25 µM corresponded to half-maximal inhibition (IC50).
In the case of `C=C1CC[C@@H]2[C@](C)(CO)[C@H](O)CC[C@@]2(C)[C@@H]1/C=C/C1=CC(=C/c2ccc3c(c2)OCO3)/OC1=O` [15-(benzo[1,3]dioxole-5-methanylidene)-14-deoxy-11,12-didehydroandrographolide] it was 82 µM; in that of `C=C1CC[C@@H]2[C@](C)(CO)[C@H](O)CC[C@@]2(C)[C@@H]1/C=C/C1=CC(=C/c2cc(OC)c(OC)cc2OC)/OC1=O` [14-deoxy-11,12-didehydro-15-trimethoxylbenzylideneandrographolide], 84 µM.
In the case of `C=C1CC[C@@H]2[C@](C)(CO)[C@H](O)CC[C@@]2(C)[C@@H]1/C=C/C1=CC(=C/c2ccccc2)/OC1=O` [15-benzylidene-14-deoxy-11,12-didehydroandrographolide], the midpoint of inhibition, the IC50, lay at 58 µM. The IC50 values of the last two compounds are within 1.5-fold of each other.
The value for `C=C1CC[C@@H]2[C@](C)(CO)[C@H](O)CC[C@@]2(C)[C@@H]1/C=C/C1=CC(=C/c2ccc(N(C)C)cc2)/OC1=O` [14-deoxy-15-(p-(dimethanylamino)-benzylidene)-11,12-didehydroandrographolide] was 70 µM; that for `C=C1CC[C@@H]2[C@](C)(COC(=O)c3cccnc3)[C@H](OC(=O)c3cccnc3)CC[C@@]2(C)[C@@H]1/C=C/C1=CC(=C\c2cccc(Br)c2)/OC1=O` [15-(m-bromoacylbenzylidene)-14-deoxy-11,12-didehydro-3,19-dinicotinateandrographolide] was 14 µM.
The compound `C=C1CC[C@@H]2[C@](C)(CO)[C@H](O)CC[C@@]2(C)[C@@H]1/C=C/C1=CC(=C/c2ccco2)/OC1=O` [14-deoxy-11,12-didehydro-15-(-2-furanmethanylidene)-andrographolide] showed an IC50 of 100 µM.

A word on the IC50: it is the concentration that gives 50% inhibition. A low value points to inhibition by little substance.

(Values after BindingDB's records for doi:10.1016/j.bmc.2007.03.063 (Zhengzhou University, 2007).)
